Several values for one entry are separate records, joined by “and”; a condition that tells them apart may be missing. Identical values can stand only once. Inconclusive results and toxic doses are left out.
System: CD2F1 mice, L1210 leukemia ip, survival T/C
Experiment: NCI In Vivo Anticancer Drug Screen. Data for tumor model L1210 Leukemia (intraperitoneal) in CD2F1 (CDF1) mice
Conditions: higher = longer survival
Procedure, shortened: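 Compound-dosed mice with transplantable tumor versus matched vehicle controls; endpoint ratio T/C reported.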

Question: What does the source list for `O=c1[nH]cc(F)c(=O)[nH]1`?
Answer: T/C (endpoint: mean survival time, dose: 2.5 mg/kg/injection, schedule: Q01DX009 (ip), vehicle: saline): 113 % of control; T/C (endpoint: mean survival time, dose: 3.75 mg/kg/injection, schedule: Q01DX003 (ip), vehicle: saline): 116 % of control; T/C (endpoint: mean survival time, dose: 3.75 mg/kg/injection, schedule: Q01DX005 (ip), vehicle: saline): 114 % of control and 122 % of control; T/C (endpoint: mean survival time, dose: 4.0 mg/kg/injection, schedule: Q03HX016 (ip), vehicle: water): 167 % of control; T/C (endpoint: mean survival time, dose: 4.0 mg/kg/injection, schedule: Q03HX024 (ip), vehicle: water): 153 % of control; T/C (endpoint: mean survival time, dose: 5.0 mg/kg/injection, schedule: Q01DX009 (ip), vehicle: saline): 124 % of control; T/C (endpoint: mean survival time, dose: 7.5 mg/kg/injection, schedule: Q03HX024 (ip), vehicle: saline): 157 % of control; T/C (endpoint: mean survival time, dose: 8.0 mg/kg/injection, schedule: Q01DX009 (ip), vehicle: water): 151 % of control; T/C (endpoint: mean survival time, dose: 8.0 mg/kg/injection, schedule: Q03HX016 (ip), vehicle: water): 154 % of control; T/C (endpoint: mean survival time, dose: 10.0 mg/kg/injection, schedule: Q01DX002 (ip), vehicle: saline): 124 % of control; T/C (endpoint: mean survival time, dose: 10.0 mg/kg/injection, schedule: Q01DX006 (ip), vehicle: saline): 161 % of control; T/C (endpoint: mean survival time, dose: 10.0 mg/kg/injection, schedule: Q03HX016 (ip), vehicle: saline): 152 % of control; T/C (endpoint: mean survival time, dose: 10.8 mg/kg/injection, schedule: Q01DX009 (ip), vehicle: saline): 150 % of control; T/C (endpoint: mean survival time, dose: 12.0 mg/kg/injection, schedule: Q04DX003 (ip), vehicle: saline): 121 % of control; T/C (endpoint: mean survival time, dose: 12.5 mg/kg/injection, schedule: Q03HX024 (oral), vehicle: saline): 122 % of control; T/C (endpoint: mean survival time, dose: 13.3 mg/kg/injection, schedule: Q01DX009 (ip), vehicle: saline sonified): 168 % of control; T/C (endpoint: mean survival time, dose: 14.0 mg/kg/injection, schedule: Q01DX009 (ip), vehicle: saline sonified): 160 % of control; T/C (endpoint: mean survival time, dose: 14.0 mg/kg/injection, schedule: Q01DX009 (ip), vehicle: saline with Tween-80): 157 % of control and 172 % of control; T/C (endpoint: mean survival time, dose: 15.0 mg/kg/injection, schedule: Q01DX005 (ip), vehicle: saline): 158 % of control and 169 % of control; T/C (endpoint: mean survival time, dose: 16.0 mg/kg/injection, schedule: Q01DX009 (oral), vehicle: saline): 114 % of control; T/C (endpoint: mean survival time, dose: 16.0 mg/kg/injection, schedule: Q03HX008 (ip), vehicle: water): 163 % of control; T/C (endpoint: mean survival time, dose: 16.0 mg/kg/injection, schedule: Q03HX024 (ip), vehicle: water): 120 % of control; T/C (endpoint: mean survival time, dose: 20.0 mg/kg/injection, schedule: Q01DX009 (ip), vehicle: saline sonified): 169 % of control; T/C (endpoint: mean survival time, dose: 20.0 mg/kg/injection, schedule: Q03DX003 (ip), vehicle: saline): 152 % of control; T/C (endpoint: mean survival time, dose: 22.5 mg/kg/injection, schedule: Q01DX009 (ip), vehicle: saline): 117 % of control; T/C (endpoint: mean survival time, dose: 25.0 mg/kg/injection, schedule: Q01DX001 (ip), vehicle: saline): 117 % of control; T/C (endpoint: mean survival time, dose: 25.0 mg/kg/injection, schedule: Q03HX024 (oral), vehicle: saline): 118 % of control; T/C (endpoint: mean survival time, dose: 30.0 mg/kg/injection, schedule: Q01DX003 (ip), vehicle: saline): 168 % of control; T/C (endpoint: mean survival time, dose: 30.0 mg/kg/injection, schedule: Q01DX003 (oral), vehicle: saline): 123 % of control; T/C (endpoint: mean survival time, dose: 30.0 mg/kg/injection, schedule: Q01DX005 (oral), vehicle: saline): 119 % of control; T/C (endpoint: mean survival time, dose: 30.0 mg/kg/injection, schedule: Q01DX009 (ip), vehicle: saline sonified): 152 % of control; T/C (endpoint: mean survival time, dose: 30.0 mg/kg/injection, schedule: Q04DX003 (ip), vehicle: saline sonified): 152 % of control; T/C (endpoint: mean survival time, dose: 32.0 mg/kg/injection, schedule: Q04DX003 (ip), vehicle: water): 169 % of control; T/C (endpoint: mean survival time, dose: 32.0 mg/kg/injection, schedule: Q08DX002 (ip), vehicle: water): 154 % of control; T/C (endpoint: mean survival time, dose: 40.0 mg/kg/injection, schedule: Q04DX003 (ip), vehicle: saline sonified): 165 % of control; T/C (endpoint: mean survival time, dose: 40.0 mg/kg/injection, schedule: Q04DX003 (ip), vehicle: saline with Tween-80): 160 % of control and 163 % of control and 172 % of control; T/C (endpoint: mean survival time, dose: 44.0 mg/kg/injection, schedule: Q04DX003 (ip), vehicle: saline): 172 % of control; T/C (endpoint: mean survival time, dose: 50.0 mg/kg/injection, schedule: Q01DX009 (oral), vehicle: saline): 116 % of control; T/C (endpoint: mean survival time, dose: 50.0 mg/kg/injection, schedule: Q03HX008 (oral), vehicle: saline): 122 % of control; T/C (endpoint: mean survival time, dose: 50.0 mg/kg/injection, schedule: Q04DX003 (ip), vehicle: saline): 172 % of control; T/C (endpoint: mean survival time, dose: 60.0 mg/kg/injection, schedule: Q01DX005 (oral), vehicle: saline): 117 % of control; T/C (endpoint: mean survival time, dose: 60.0 mg/kg/injection, schedule: Q03HX024 (ip), vehicle: saline): 164 % of control; T/C (endpoint: mean survival time, dose: 60.0 mg/kg/injection, schedule: Q04DX003 (ip), vehicle: saline sonified): 164 % of control; T/C (endpoint: mean survival time, dose: 60.0 mg/kg/injection, schedule: Q04DX003 (ip), vehicle: saline with Tween-80): 164 % of control; T/C (endpoint: mean survival time, dose: 62.5 mg/kg/injection, schedule: Q01DX001 (oral), vehicle: saline): 113 % of control; T/C (endpoint: mean survival time, dose: 64.0 mg/kg/injection, schedule: Q01DX009 (oral), vehicle: saline): 119 % of control; T/C (endpoint: mean survival time, dose: 64.0 mg/kg/injection, schedule: Q04DX003 (ip), vehicle: water): 160 % of control; T/C (endpoint: mean survival time, dose: 64.0 mg/kg/injection, schedule: Q08DX002 (ip), vehicle: water): 164 % of control; T/C (endpoint: mean survival time, dose: 67.5 mg/kg/injection, schedule: Q04DX003 (ip), vehicle: saline): 150 % of control; T/C (endpoint: mean survival time, dose: 80.0 mg/kg/injection, schedule: Q03HX024 (ip), vehicle: saline): 176 % of control; T/C (endpoint: mean survival time, dose: 80.0 mg/kg/injection, schedule: Q04DX003 (ip), vehicle: saline sonified): 160 % of control; T/C (endpoint: mean survival time, dose: 100.0 mg/kg/injection, schedule: Q08DX002 (oral), vehicle: saline): 151 % of control; T/C (endpoint: mean survival time, dose: 128.0 mg/kg/injection, schedule: Q04DX003 (ip), vehicle: water): 120 % of control; T/C (endpoint: mean survival time, dose: 128.0 mg/kg/injection, schedule: Q08DX002 (ip), vehicle: water): 167 % of control; T/C (endpoint: mean survival time, dose: 132.0 mg/kg/injection, schedule: Q01DX001 (ip), vehicle: saline): 153 % of control; T/C (endpoint: mean survival time, dose: 166.0 mg/kg/injection, schedule: Q01DX001 (ip), vehicle: saline with Tween-80): 150 % of control; T/C (endpoint: mean survival time, dose: 200.0 mg/kg/injection, schedule: Q01DX001 (oral), vehicle: saline): 118 % of control; T/C (endpoint: mean survival time, dose: 200.0 mg/kg/injection, schedule: Q04DX003 (ip), vehicle: saline): 159 % of control; T/C (endpoint: mean survival time, dose: 256.0 mg/kg/injection, schedule: Q08DX002 (ip), vehicle: water): 120 % of control; T/C (endpoint: mean survival time, dose: 300.0 mg/kg/injection, schedule: Q01DX001 (ip), vehicle: saline with Tween-80): 153 % of control; T/C (endpoint: mean survival time, dose: 338.0 mg/kg/injection, schedule: Q01DX001 (ip), vehicle: saline): 150 % of control; T/C (endpoint: mean survival time, dose: 400.0 mg/kg/injection, schedule: Q04DX003 (ip), vehicle: saline with Tween-80): 117 % of control; T/C (endpoint: mean survival time, dose: 400.0 mg/kg/injection, schedule: Q04DX003 (ip), vehicle: saline): 161 % of control; T/C (endpoint: median survival time, dose: 6.48 mg/kg/injection, schedule: Q01DX009 (ip), vehicle: saline): 120 % of control; T/C (endpoint: median survival time, dose: 7.5 mg/kg/injection, schedule: Q01DX009 (ip), vehicle: saline): 153 % of control; T/C (endpoint: median survival time, dose: 7.5 mg/kg/injection, schedule: Q## X009 (ip), vehicle: saline): 153 % of control; T/C (endpoint: median survival time, dose: 10.0 mg/kg/injection, schedule: Q01DX001 (ip), vehicle: saline): 152 % of control; T/C (endpoint: median survival time, dose: 13.0 mg/kg/injection, schedule: Q04DX002 (ip), vehicle: saline): 121 % of control; T/C (endpoint: median survival time, dose: 13.0 mg/kg/injection, schedule: Q04DX003 (ip), vehicle: saline): 121 % of control; T/C (endpoint: median survival time, dose: 14.3 mg/kg/injection, schedule: Q04DX003 (ip), vehicle: saline): 124 % of control; T/C (endpoint: median survival time, dose: 15.0 mg/kg/injection, schedule: Q01DX005 (ip), vehicle: saline): 165 % of control; T/C (endpoint: median survival time, dose: 15.0 mg/kg/injection, schedule: Q01DX009 (ip), vehicle: saline): 167 % of control; T/C (endpoint: median survival time, dose: 15.0 mg/kg/injection, schedule: Q## X009 (ip), vehicle: saline): 167 % of control; T/C (endpoint: median survival time, dose: 20.0 mg/kg/injection, schedule: Q01DX001 (ip), vehicle: saline): 154 % of control; T/C (endpoint: median survival time, dose: 21.6 mg/kg/injection, schedule: Q04DX002 (ip), vehicle: saline): 123 % of control; T/C (endpoint: median survival time, dose: 30.0 mg/kg/injection, schedule: Q01DX009 (ip), vehicle: saline): 173 % of control; T/C (endpoint: median survival time, dose: 36.0 mg/kg/injection, schedule: Q04DX003 (ip), vehicle: saline): 160 % of control and 167 % of control; T/C (endpoint: median survival time, dose: 39.6 mg/kg/injection, schedule: Q04DX003 (ip), vehicle: saline): 164 % of control; T/C (endpoint: median survival time, dose: 40.0 mg/kg/injection, schedule: Q04DX002 (ip), vehicle: saline): 162 % of control; T/C (endpoint: median survival time, dose: 80.0 mg/kg/injection, schedule: Q04DX002 (ip), vehicle: saline): 166 % of control; T/C (endpoint: median survival time, dose: 100.0 mg/kg/injection, schedule: Q04DX003 (ip), vehicle: saline): 151 % of control; T/C (endpoint: median survival time, dose: 300.0 mg/kg/injection, schedule: Q01DX001 (ip), vehicle: Klucel (hydroxypropylcellulose) (HPC)): 174 % of control

Question: For `CCN(CC)[P+](c1ccccc1O)(N(CC)CC)N(CC)CC`, which T/C (endpoint: mean survival time, dose: 0.39 mg/kg/injection, schedule: Q01DX009 (ip), vehicle: saline) is on record?
Answer: The T/C was 103 % of control.

Question: And the T/C (endpoint: mean survival time, dose: 0.78 mg/kg/injection, schedule: Q01DX009 (ip), vehicle: saline)?
Answer: Its T/C is 104 % of control.

Question: And the T/C (endpoint: mean survival time, dose: 1.56 mg/kg/injection, schedule: Q01DX009 (ip), vehicle: saline)?
Answer: The T/C was 109 % of control.

Question: What about the T/C (endpoint: mean survival time, dose: 6.25 mg/kg/injection, schedule: Q01DX009 (ip), vehicle: saline) of the same compound?
Answer: The T/C was 92 % of control.
